Assay: xn = mol fraction of the nth substance listed

CC(=O)c1ccc(Cl)cc1 + CN(C)c1ccccc1
viscosity [mPa·s], 101 kPa
Conditions	303.15 K	308.15 K
x2 = 0.0685	2.238	2.175
x2 = 0.1369	2.129	2.065
x2 = 0.2085	2.019	1.954
x2 = 0.2801	1.913	1.849
x2 = 0.3517	1.816	1.752
x2 = 0.4754	1.663	1.597
x2 = 0.551	1.576	1.511
x2 = 0.6023	1.53	1.46
x2 = 0.6538	1.478	1.409
x2 = 0.7316	1.404	1.335
x2 = 0.7852	1.355	1.288
x2 = 0.8376	1.307	1.243
x2 = 0.9175	1.24	1.177

BrC(Br)Br + CS(C)=O
Conditions	viscosity [mPa·s]
298 K, 101.3 kPa, x1 = 0.0899	2.155
298 K, 101.3 kPa, x1 = 0.1708	2.427
298 K, 101.3 kPa, x1 = 0.3448	2.816
298 K, 101.3 kPa, x1 = 0.4446	2.945
298 K, 101.3 kPa, x1 = 0.5453	2.944
298 K, 101.3 kPa, x1 = 0.6466	2.762
298 K, 101.3 kPa, x1 = 0.7553	2.544
298 K, 101.3 kPa, x1 = 0.8619	2.192
318 K, 101.33 kPa, x1 = 0.1216	1.568
318 K, 101.33 kPa, x1 = 0.2541	1.787
318 K, 101.33 kPa, x1 = 0.443	1.978
318 K, 101.33 kPa, x1 = 0.5441	1.982
318 K, 101.33 kPa, x1 = 0.5955	1.983
318 K, 101.33 kPa, x1 = 0.8193	1.716

CC(=O)c1ccc(Cl)cc1 + CCNc1ccccc1
303.15 K, 100 kPa
Conditions	viscosity [mPa·s]
x2 = 0.0798	2.295
x2 = 0.1568	2.242
x2 = 0.2321	2.191
x2 = 0.2989	2.147
x2 = 0.3614	2.106
x2 = 0.4467	2.051
x2 = 0.5163	2.008
x2 = 0.5841	1.967
x2 = 0.6601	1.922
x2 = 0.7245	1.885
x2 = 0.7874	1.85
x2 = 0.8487	1.818
x2 = 0.9042	1.788

CCCCCCCCO + CO
viscosity [mPa·s], 101 kPa
Conditions	298.15 K	308.15 K	318.15 K
x2 = 0.05	6.856	4.941	3.665
x2 = 0.1	6.367	4.633	3.463
x2 = 0.15	5.895	4.331	3.263
x2 = 0.2	5.44	4.035	3.065
x2 = 0.25	5.002	3.746	2.87
x2 = 0.3	4.581	3.464	2.676
x2 = 0.35	4.176	3.189	2.485
x2 = 0.4	3.789	2.921	2.296
x2 = 0.45	3.418	2.661	2.11
x2 = 0.5	3.064	2.41	1.927
x2 = 0.55	2.727	2.166	1.748
x2 = 0.6	2.408	1.933	1.573
x2 = 0.65	2.106	1.708	1.403
x2 = 0.7	1.823	1.495	1.239
x2 = 0.75	1.559	1.292	1.081
x2 = 0.8	1.314	1.101	0.9299
x2 = 0.85	1.089	0.9227	0.787
x2 = 0.9	0.8845	0.7578	0.6532
x2 = 0.95	0.7018	0.6071	0.5296

CCCCCCCl + C=C(C)C(=O)OC
303.15 K, 101 kPa
Conditions	viscosity [mPa·s]
x2 = 0.1343	0.6215
x2 = 0.1947	0.6053
x2 = 0.3625	0.5729
x2 = 0.4962	0.5511
x2 = 0.6029	0.5375
x2 = 0.8144	0.5199
x2 = 0.8988	0.5152

C[C@@H](O)[C@H](N)C(=O)O + O
101 kPa
Conditions	viscosity [mPa·s]
293.15 K, x1 = 0.001804	1.036
293.15 K, x1 = 0.0107	1.226
298.15 K, x1 = 8.95e-05	0.9002
298.15 K, x1 = 0.0001801	0.9048
298.15 K, x1 = 0.001819	0.9278
298.15 K, x1 = 0.003526	0.9547
298.15 K, x1 = 0.005296	0.9865
298.15 K, x1 = 0.007341	1.02
298.15 K, x1 = 0.008519	1.047
298.15 K, x1 = 0.01104	1.075
298.15 K, x1 = 0.01269	1.105
298.15 K, x1 = 0.01399	1.136
303.15 K, x1 = 0.007153	0.904
303.15 K, x1 = 0.01245	0.9968
305.15 K, x1 = 0.00036	0.788
305.15 K, x1 = 0.0007203	0.7937
305.15 K, x1 = 0.00108	0.7998
305.15 K, x1 = 0.001439	0.8055
305.15 K, x1 = 0.001798	0.8106
305.15 K, x1 = 0.002157	0.8163
308.15 K, x1 = 8.95e-05	0.7885
308.15 K, x1 = 0.0001801	0.7945
308.15 K, x1 = 0.001819	0.8025
308.15 K, x1 = 0.003526	0.8241
308.15 K, x1 = 0.005296	0.8417
308.15 K, x1 = 0.007341	0.8612
308.15 K, x1 = 0.008519	0.8741
308.15 K, x1 = 0.01104	0.9001
308.15 K, x1 = 0.01269	0.9289
308.15 K, x1 = 0.01399	0.9456
310.15 K, x1 = 0.00036	0.707
310.15 K, x1 = 0.0007203	0.7122
310.15 K, x1 = 0.00108	0.7174
310.15 K, x1 = 0.001439	0.7223
310.15 K, x1 = 0.001798	0.7263
310.15 K, x1 = 0.002157	0.7313
313.15 K, x1 = 0.008929	0.758
313.15 K, x1 = 0.0107	0.7828
313.15 K, x1 = 0.01245	0.8054
315.15 K, x1 = 0.00036	0.6527
315.15 K, x1 = 0.0007203	0.6576
315.15 K, x1 = 0.00108	0.6612
315.15 K, x1 = 0.001439	0.6656
315.15 K, x1 = 0.001798	0.6694
315.15 K, x1 = 0.002157	0.6737
318.15 K, x1 = 8.95e-05	0.6814
318.15 K, x1 = 0.0001801	0.6945
318.15 K, x1 = 0.001819	0.7042
318.15 K, x1 = 0.003526	0.7214
318.15 K, x1 = 0.005296	0.7356
318.15 K, x1 = 0.007341	0.7565
318.15 K, x1 = 0.008519	0.7645
318.15 K, x1 = 0.01104	0.7898
318.15 K, x1 = 0.01269	0.8045
318.15 K, x1 = 0.01399	0.8214
323.15 K, x1 = 0.00359	0.5782
323.15 K, x1 = 0.007153	0.6118

BrC(Br)Br + CCCCCCC(C)O
viscosity [mPa·s], 101.3 kPa
Conditions	x1 = 0.104	x1 = 0.199	x1 = 0.3	x1 = 0.403	x1 = 0.502	x1 = 0.603	x1 = 0.704	x1 = 0.801	x1 = 0.899
298.15 K	5.244	4.606	3.91	3.391	2.965	2.623	2.337	2.123	1.969
303.15 K	4.336	3.855	3.348	2.937	2.594	2.335	2.104	1.943	1.83
308.15 K	3.625	3.274	2.894	2.566	2.288	2.084	1.913	1.785	1.698

C=Cc1ccccc1 + CS(C)=O
viscosity [mPa·s], 101.33 kPa
Conditions	x1 = 0.1017	x1 = 0.2022	x1 = 0.3096	x1 = 0.3987	x1 = 0.501	x1 = 0.6007	x1 = 0.6968	x1 = 0.801	x1 = 0.896
298.15 K	1.642	1.475	1.326	1.237	1.139	1.058	0.982	0.887	0.802
303.15 K	1.482	1.343	1.191	1.112	1.044	0.976	0.91	0.827	0.749
308.15 K	1.335	1.204	1.083	1.014	0.957	0.899	0.837	0.763	0.7

From the CheMixHub viscosity set
